How the values were obtained:
[1] = AUC in iv and po dosed rat; format: ADME, organism-based; conditions: plasma
[2] = Drug clearance in rat at 2 mg/kg, iv; format: ADME, organism-based; set-up: dose 2 mg/kg, route intravenous; conditions: in vivo
[3] = system: Hepatitis C virus; experiment: Inhibition of HCV genotype 1b NS5B polymerase expressed in Escherichia coli BL21(DE3) after 60 mins by FRET assay; set-up: species or system Hepatitis C virus subtype 1b; conditions: BL21-DE3, 1 h
[4] = system: Hepatitis C virus; experiment: Antiviral activity against HCV infected in human Huh7 cells assessed as inhibition of viral replication by luciferase assay; format: functional, organism-based, Hepacivirus hominis; conditions: Huh-7
[5] = Oral bioavailability in rat; format: ADME, organism-based; conditions: in vivo

Row | SMILES | AUC [1] [nM·h] | clearance [2] [L/h/kg] | IC50 [3] [µM] | EC50 [4] [µM] | bioavailability [5] [%]
1 | O=C(O)/C=C/c1ccc(OC(=O)C2(NC(=O)c3ccc4c(C5CCCCC5)c5n(c4c3)CCCCNc3ccccc3-5)CCCC2)cc1 | 3610 | 0.522 | 0.09 | 0.02 | 12.3
2 | O=C1Cn2c(c(C3CCCCC3)c3ccc(C(=O)O)cc32)-c2ccccc2N1 |  |  | 0.07 | 0.24 | 17.6
3 | O=C(O)c1ccc2c(C3CCCCC3)c3n(c2c1)CCCc1ccccc1-3 |  |  | 0.84 | 0.7 | 
4 | O=C(O)/C=C/c1ccc(OC(=O)C2(NC(=O)c3ccc4c(C5CCCCC5)c5n(c4c3)CCCc3ccccc3-5)CCCC2)cc1 | 280 | 15 | 0.03 | 0.02 | 8
5 | O=C(O)c1ccc2c(C3CCCCC3)c3n(c2c1)CCCCNc1ccccc1-3 |  |  | 0.6 | 0.27 | 
6 | O=C(O)c1ccc2c(C3CCCCC3)c3n(c2c1)CCOc1ccccc1-3 |  |  | 0.69 | 0.59 | 
7 | O=C(O)/C=C/c1ccc(OC(=O)C2(NC(=O)c3ccc4c(C5CCCCC5)c5n(c4c3)CCOc3ccccc3-5)CCCC2)cc1 | 790 | 1.02 | 0.03 | 0.01 | 5
8 | O=C(O)/C=C/c1ccc(OC(=O)C2(NC(=O)c3ccc4c(C5CCCCC5)c5n(c4c3)CC(=O)Nc3ccccc3-5)CCCC2)cc1 | 660 | 0.78 | 0.02 | 0.01 | 3
